Assay: xn = mol fraction of the nth substance listed
Settings: 101 kPa, Liquid; for speed of sound: Sing-around technique in a fixed-path interferometer

CCOC(C)(C)C [2-ethoxy-2-methylpropane] + Cc1ccc(C)cc1
Settings	mass density [kg/m3]	speed of sound [m/s]
305.65 K, x1 = 0.062	842.155	–
305.65 K, x1 = 0.123	834.557	–
305.65 K, x1 = 0.238	820.611	–
305.65 K, x1 = 0.35	806.841	–
305.65 K, x1 = 0.455	793.966	–
305.65 K, x1 = 0.557	781.512	–
305.65 K, x1 = 0.654	769.583	–
305.65 K, x1 = 0.746	758.333	–
305.65 K, x1 = 0.834	747.515	–
305.65 K, x1 = 0.902	739.137	–
305.65 K, x1 = 0.959	732.166	–
305.65 K, x1 = 1	727.038	–
308.15 K, x1 = 0.062	839.962	1248.7
308.15 K, x1 = 0.123	832.343	1231.1
308.15 K, x1 = 0.238	818.339	1198.4
308.15 K, x1 = 0.35	804.54	1166.7
308.15 K, x1 = 0.455	791.627	1137.1
308.15 K, x1 = 0.557	779.104	1108.3
308.15 K, x1 = 0.654	767.142	1081.2
308.15 K, x1 = 0.746	755.854	1055.7
308.15 K, x1 = 0.834	745.002	1031.6
308.15 K, x1 = 0.902	736.575	1012.8
308.15 K, x1 = 0.959	729.598	997.44
308.15 K, x1 = 1	724.443	986.39
310.65 K, x1 = 0.062	837.759	1238.5
310.65 K, x1 = 0.123	830.128	1220.9
310.65 K, x1 = 0.238	816.051	1188
310.65 K, x1 = 0.35	802.206	1156.1
310.65 K, x1 = 0.455	789.243	1126.3
310.65 K, x1 = 0.557	776.705	1097.6
310.65 K, x1 = 0.654	764.679	1070.4
310.65 K, x1 = 0.746	753.335	1044.9
310.65 K, x1 = 0.834	742.455	1020.6
310.65 K, x1 = 0.902	733.99	1001.8
310.65 K, x1 = 0.959	726.994	986.36
310.65 K, x1 = 1	721.826	975.42
313.15 K, x1 = 0.062	835.532	1228.3
313.15 K, x1 = 0.123	827.882	1210.7
313.15 K, x1 = 0.238	813.765	1177.8
313.15 K, x1 = 0.35	799.872	1145.7
313.15 K, x1 = 0.455	786.866	1115.8
313.15 K, x1 = 0.557	774.27	1087
313.15 K, x1 = 0.654	762.204	1059.7
313.15 K, x1 = 0.746	750.812	1034.1
313.15 K, x1 = 0.834	739.901	1009.8
313.15 K, x1 = 0.902	731.4	990.86
313.15 K, x1 = 0.959	724.383	975.56
313.15 K, x1 = 1	719.179	964.53
315.65 K, x1 = 0.062	833.306	1218.3
315.65 K, x1 = 0.123	825.641	1200.6
315.65 K, x1 = 0.238	811.445	1167.5
315.65 K, x1 = 0.35	797.52	1135.4
315.65 K, x1 = 0.455	784.471	1105.4
315.65 K, x1 = 0.557	771.824	1076.4
315.65 K, x1 = 0.654	759.71	1049.1
315.65 K, x1 = 0.746	748.28	1023.4
315.65 K, x1 = 0.834	737.319	998.93
315.65 K, x1 = 0.902	728.791	980.02
315.65 K, x1 = 0.959	721.749	964.74
315.65 K, x1 = 1	716.527	953.54
318.15 K, x1 = 0.062	831.175	1208.1
318.15 K, x1 = 0.123	823.476	1190.2
318.15 K, x1 = 0.238	809.233	1157
318.15 K, x1 = 0.35	795.26	1124.9
318.15 K, x1 = 0.455	782.164	1094.8
318.15 K, x1 = 0.557	769.47	1065.8
318.15 K, x1 = 0.654	757.309	1038.5
318.15 K, x1 = 0.746	745.827	1012.6
318.15 K, x1 = 0.834	734.831	988.25
318.15 K, x1 = 0.902	726.264	969.29
318.15 K, x1 = 0.959	719.189	953.77
318.15 K, x1 = 1	713.96	942.67
320.65 K, x1 = 0.062	828.907	1197.9
320.65 K, x1 = 0.123	821.186	1180
320.65 K, x1 = 0.238	806.89	1146.7
320.65 K, x1 = 0.35	792.863	1114.4
320.65 K, x1 = 0.455	779.723	1084.3
320.65 K, x1 = 0.557	766.974	1055.2
320.65 K, x1 = 0.654	754.765	1027.7
320.65 K, x1 = 0.746	743.239	1001.8
320.65 K, x1 = 0.834	732.197	977.45
320.65 K, x1 = 0.902	723.589	958.35
320.65 K, x1 = 0.959	716.494	942.81
320.65 K, x1 = 1	711.25	931.73
323.15 K, x1 = 0.062	826.773	1187.7
323.15 K, x1 = 0.123	819.029	1169.7
323.15 K, x1 = 0.238	804.681	1136.3
323.15 K, x1 = 0.35	790.599	1103.9
323.15 K, x1 = 0.455	777.399	1073.7
323.15 K, x1 = 0.557	764.613	1044.6
323.15 K, x1 = 0.654	752.347	1017.1
323.15 K, x1 = 0.746	740.77	991.05
323.15 K, x1 = 0.834	729.685	966.6
323.15 K, x1 = 0.902	721.039	947.53
323.15 K, x1 = 0.959	713.92	931.92
323.15 K, x1 = 1	708.642	920.73
